# In patent publication US20150218141A1, “SUBSTITUTED CARBAMATE COMPOUNDS” (HOFFMANN-LA ROCHE INC, priority 2012, published 2015):
# Where a name gives a salt, the structure may show the parent alone.
# Molecular target: T1, hTRPA1 (Homo sapiens, UniProt O75762)
# T1 construct: host or cells: CHO-K1 Tet-On, Clone 20 (Chinese Hamster Ovary cells, inducible expression)
# Experiment: IC50 determination, dose response calcium flux (FLIPR) assay, ChanTest hTRPA1-CHO stably transfected cell line
# Type: cell-based
# Conditions: CHO-K1 Tet-On hTRPA1 cells, 30' preincubation, agonist cinnamaldehyde final 100 uM
# Protocol: IC50 Determination of Exemplified Compounds Dose Response Assay: ChanTest hTRPA1-CHO Stably Transfected Cell Line
# CHO-K1 Tet-On_HOMSA_TRPA1_Clone—20
# Growth Media for CHO-K1 Tet-On_HOMSA_TRPA1_Clone—20 • Ham's F-12 with 10% tetracycline-free FBS • 1× penicillin-streptomycin • 1× glutamax • 0.01 mg/ml Blasticidin • 0.40 mg/ml Zeocin • The cell line doubling rate was ˜15 hours. […] Experiments were run at 24 hours post induction.
# Plating Conditions CHOK1/TRPA1 Cells: • Harvested cells with 0.025% trypsin/EDTA. • Resuspended cells in growth media without selection antibiotics. • Measured cell density and diluted to 2.4×10^5 cells/ml in media containing 1 ug/ml Doxycycline Plate 25 ul/well into 384 well black/clear tissue culture-treated plates. • Incubated overnight at 37° C.
# Reagents: • Replacement Buffer: Hank's Balanced Salt Solution, 20 mM HEPES along with 0.005% BSA and 2× Probenecid • Dye Loading Buffer: Cal-3 NW Calcium dye was prepared by dissolving the contents of one vial with […] Hank's Balanced Salt Solution containing 20 mM HEPES. • Control compounds for CHOK1/TRPA1 cells: AP-18, stock 10 mM, prepare 3.5× compound dilution in a Compound Buffer (HBSS/20 mM HEPES/0.005% BSA)—final concentration 10 uM.
# Preparation of Cinnamaldehyde (Agonist Addition):
# • Specific gravity=1.046 gm/cc • 1.32 gm/1.046 gm/cc=1.26 ml of stock • Add 1.74 ml DMSO=3.3 M stock • Working solution 4.5× (final 100 uM in Compound Buffer: HBSS/20 mM HEPES/0.005% BSA)
# Compounds dilutions were prepared from 5 or 10 mM stock (100% DMSO): • Adjustments of volumes and concentrations were made at time of titration to reflect desired final assay concentrations. • Compounds were tested at either 20 μM three folds dilution 11 steps out or 30 μM two folds dilution 11 steps out. • 3 μl of diluted compound were transferred into Weidmann 384-well plate in duplicates side-by-side.
# Compound plates were resuspended with 100 ul of HBSS/20 mM HEPES/0.005% BSA buffer (Compound Buffer):
# Growth media was removed from the cell plates (20 ul) and 20 ul of the Replacement Buffer was added followed by addition of 25 ul of diluted dye. All three steps were performed using a Plate Washer BioTek 407. The plates were then incubated for 30′ at RT.
# After incubation, both the cell and compound plates were brought to the FLIPR and 20 ul of the diluted compounds/antagonist/bk were transferred to the cell plates by the FLIPR. Plates were then incubated for 30′ at room temperature. After 30′ incubation, plates were returned to the FLIPR and 20 ul of 4.5× Cinnamaldehyde was added to the cell plates. During the compound addition as well as agonist addition, fluorescence readings were taken simultaneously from all 384 wells of the cell plate every 1.5 seconds. Five readings were taken to establish a stable baseline, then 20 ul of sample was rapidly (30 ul/sec) and simultaneously added to each well of the cell plate. The fluorescence was continuously monitored before, during and after sample/agonist addition for a total elapsed time of 100 seconds (compound addition) and 120 seconds (agonist addition). Responses (increase in peak fluorescence) in each well following agonist addition was determined. The initial fluorescence reading from each well, prior to ligand stimulation, was used a zero baseline value for the data from that well.
# T1 sequence (O75762 whole entry): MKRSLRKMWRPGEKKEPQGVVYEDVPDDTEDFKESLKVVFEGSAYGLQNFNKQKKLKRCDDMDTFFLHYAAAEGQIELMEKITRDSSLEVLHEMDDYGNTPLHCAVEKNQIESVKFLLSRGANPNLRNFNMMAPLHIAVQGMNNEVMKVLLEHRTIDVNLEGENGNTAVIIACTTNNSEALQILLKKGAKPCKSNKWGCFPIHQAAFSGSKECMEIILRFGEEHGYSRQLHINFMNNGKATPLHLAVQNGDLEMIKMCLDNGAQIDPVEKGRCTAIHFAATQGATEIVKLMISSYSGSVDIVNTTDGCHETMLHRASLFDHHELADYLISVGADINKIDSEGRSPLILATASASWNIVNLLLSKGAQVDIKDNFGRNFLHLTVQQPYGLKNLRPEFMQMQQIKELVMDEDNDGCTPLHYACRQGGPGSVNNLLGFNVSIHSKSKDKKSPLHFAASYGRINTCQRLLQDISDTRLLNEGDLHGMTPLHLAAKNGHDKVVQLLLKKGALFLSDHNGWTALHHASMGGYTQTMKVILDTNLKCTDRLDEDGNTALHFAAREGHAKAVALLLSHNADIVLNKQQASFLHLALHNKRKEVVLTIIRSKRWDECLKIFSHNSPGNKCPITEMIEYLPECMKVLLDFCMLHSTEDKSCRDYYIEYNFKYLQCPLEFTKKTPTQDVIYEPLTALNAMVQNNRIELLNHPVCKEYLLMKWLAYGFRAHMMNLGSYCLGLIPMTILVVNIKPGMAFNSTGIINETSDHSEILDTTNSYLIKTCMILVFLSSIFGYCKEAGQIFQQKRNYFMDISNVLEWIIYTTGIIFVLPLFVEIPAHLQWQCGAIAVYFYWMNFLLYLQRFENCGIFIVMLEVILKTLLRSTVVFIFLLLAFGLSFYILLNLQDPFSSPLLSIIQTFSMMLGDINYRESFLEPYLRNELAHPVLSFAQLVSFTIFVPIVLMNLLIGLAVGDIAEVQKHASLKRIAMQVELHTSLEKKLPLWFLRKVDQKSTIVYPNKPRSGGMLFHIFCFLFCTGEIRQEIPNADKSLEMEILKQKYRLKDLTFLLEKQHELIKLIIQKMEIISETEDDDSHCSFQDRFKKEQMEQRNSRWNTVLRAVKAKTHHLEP
row,SMILES,IC50 [nM]
1,"N#CC1CCCN(CC(OC(=O)Nc2ccc(Cl)cc2)C(F)(F)F)C1 (stereo not shown) [Example 13, (4-Chlorophenyl)-carbamic acid 1-(3-cyanopiperidin-1-ylmethyl)-2,2,2-trifluoroethyl ester]",277
2,"O=C(Nc1ccc(Cl)cc1)O[C@@H](CN1CCCC(c2ccc(C(F)(F)F)nc2)C1)C(F)(F)F (stereo partly drawn) [Example 57, (4-Chlorophenyl)-carbamic acid (S)-2,2,2-trifluoro-1-(6′-trifluoromethyl-3,4,5,6-tetrahydro-2H-[3,3′]bipyridinyl-1-ylmethyl)-ethyl ester hydrochloride]",342
3,"COCCCC1CCCN(CC(OC(=O)Nc2ccc(Cl)cc2)C(F)(F)F)C1 (stereo not shown) [Example 19, (4-Chlorophenyl)-carbamic acid 2,2,2-trifluoro-1-[3-(3-methoxypropyl)-piperidin-1-ylmethyl]-ethyl ester]",288
4,"O=C(Nc1ccc(Cl)cc1)O[C@@H](CN1CCC[C@H](Cc2ccccc2)C1)C(F)(F)F (single isomer, unassigned) [Example 11]",87.2
5,"O=C(Nc1ccc(Cl)cn1)O[C@@H](CN1CCC[C@H](c2cccc(C(F)(F)F)c2)C1)C(F)(F)F [Example 58, (5-Chloropyridin-2-yl)-carbamic acid (S)-2,2,2-trifluoro-1-[(R)-3-(3-trifluoromethyl-phenyl)-piperidin-1-ylmethyl]-ethyl ester hydrochloride]",174
6,"O=C(Nc1ccc(Cl)nc1)O[C@@H](CN1CCCC(c2cccc(C(F)(F)F)c2)C1)C(F)(F)F (stereo partly drawn) [Example 68, (6-Chloropyridin-3-yl)-carbamic acid (S)-2,2,2-trifluoro-1-[3-(3-trifluoromethylphenyl)-piperidin-1-ylmethyl]-ethyl ester]",192
7,"O=C(Nc1ccc(Cl)cc1)O[C@@H](CN1CCC(F)(F)CC1)C(F)(F)F [Example 33, (4-Chlorophenyl)-carbamic acid (S)-1-(4,4-difluoropiperidin-1-ylmethyl)-2,2,2-trifluoroethyl ester hydrochloride]",78.3
8,"O=C(Nc1ccc(Cl)cc1)O[C@@H](CN1CCCC(Sc2ccccc2)C1)C(F)(F)F (stereo partly drawn) [Example 44, (4-Chlorophenyl)-carbamic acid (S)-2,2,2-trifluoro-1-(3-phenylsulfanyl-piperidin-1-ylmethyl)-ethyl ester hydrochloride]",172
9,"O=C(Nc1ccc(Cl)cc1)O[C@@H](CN1CCCC(C(=O)c2ccccc2)C1)C(F)(F)F (stereo partly drawn) [Example 39, (4-Chlorophenyl)-carbamic acid (S)-1-(3-benzoylpiperidin-1-ylmethyl)-2,2,2-trifluoroethyl ester hydrochloride]",865
10,"O=C(Nc1ccc(F)c(Cl)c1)O[C@@H](CN1CCCC(c2cccc(C(F)(F)F)c2)C1)C(F)(F)F (stereo partly drawn) [Example 65, (3-Chloro-4-fluoro-phenyl)-carbamic acid (S)-2,2,2-trifluoro-1-[3-(3-trifluoromethyl-phenyl)-piperidin-1-ylmethyl]-ethyl ester]",257
11,"COCCOc1cc([C@H]2CCCN(C[C@H](OC(=O)Nc3ccc(Cl)cc3)C(F)(F)F)C2)ccc1F [Example 35, (4-Chlorophenyl)-carbamic acid (S)-2,2,2-trifluoro-1-{(R)-3-[4-fluoro-3-(2-methoxyethoxy)-phenyl]-piperidin-1-ylmethyl}-ethyl ester hydrochloride]",334
12,"O=C(C[C@@H](CN1CCC[C@H](c2cccc(C(F)(F)F)c2)C1)C(F)(F)F)Nc1ccc(Cl)cc1 (racemic) [Example 25, Racemic (S)—N-(4-Chlorophenyl)-4,4,4-trifluoro-3-[(R)-3-(3-trifluoromethylphenyl)-piperidin-1-ylmethyl]-butyramide]",135

# More lines, now with the values ahead:
row,IC50 [nM],SMILES
1,139,"O=C(Nc1ccc(Cl)cc1)O[C@@H](CN1CCCC(Oc2ccc(Cl)cc2)C1)C(F)(F)F (stereo partly drawn) [Example 45, (4-Chlorophenyl)-carbamic acid (S)-1-[3-(4-chlorophenoxy)-piperidin-1-ylmethyl]-2,2,2-trifluoroethyl ester hydrochloride]"
2,625,"O=C(Nc1ccc(Cl)cc1)OC(CN1CCCC(c2ccccc2)C1)C(F)(F)F (stereo not shown) [Example 36, (4-Chlorophenyl)-carbamic acid 2,2,2-trifluoro-1-(3-phenylpiperidin-1-ylmethyl)-ethyl ester hydrochloride]"
3,168,"COc1cc(C2CCCN(C[C@H](OC(=O)Nc3ccc(Cl)cc3)C(F)(F)F)C2)ccc1F (stereo partly drawn) [Example 31, (4-Chlorophenyl)-carbamic acid (S)-2,2,2-trifluoro-1-[3-(4-fluoro-3-methoxyphenyl)-piperidin-1-ylmethyl]-ethyl ester hydrochloride]"
4,298,"CCOc1cccc(C2CCCN(C[C@H](OC(=O)Nc3ccc(Cl)cc3)C(F)(F)F)C2)c1 (stereo partly drawn) [Example 43, (4-Chlorophenyl)-carbamic acid (S)-1-[3-(3-ethoxyphenyl)-piperidin-1-ylmethyl]-2,2,2-trifluoroethyl ester hydrochloride]"
5,1920,"O=C(Nc1ccc(Cl)cc1)O[C@@H](CN1CCCC(c2ccccn2)C1)C(F)(F)F (stereo partly drawn) [Example 53, (4-Chlorophenyl)-carbamic acid (S)-2,2,2-trifluoro-1-(3′,4′,5′,6′-tetrahydro-2′H-[2,3′]bipyridinyl-1′-ylmethyl)-ethyl ester hydrochloride]"
6,961,"O=C(Nc1ccc(Cl)cc1)O[C@@H](CN1CCC[C@@H](Oc2ccc(Cl)cc2)C1)C(F)(F)F [Example 52b, (4-Chlorophenyl)-carbamic acid (S)-1-[(R)-3-(4-chlorophenoxy)-piperidin-1-ylmethyl]-2,2,2-trifluoroethyl ester hydrochloride]"
7,165,"COc1ccc(CC2CCCN(C[C@H](OC(=O)Nc3ccc(Cl)cc3)C(F)(F)F)C2)cc1 (stereo partly shown) [Example 20, (4-Chlorophenyl)-carbamic acid 2,2,2-trifluoro-1-[3-(4-methoxybenzyl)-piperidin-1-ylmethyl]-ethyl ester]"
